From ChEMBL document CHEMBL3632530, “Synthesis and structure-activity relationship study of benzofuran-based chalconoids bearing benzylpyridinium moiety as potent acetylcholinesterase inhibitors” (Eur J Med Chem, 2015)

Target: Acetylcholinesterase (Torpedo californica, UniProt P04058)
Test: Inhibition of Torpedo californica AChE (type VI-S) using acetylthiocholine iodide as substrate assessed as 5-thio-2-nitrobenzoate anion formation preincubated for 15 mins followed by substrate addition
Design: species or system Tetronarce californica

Sequence of Acetylcholinesterase (P04058 whole entry): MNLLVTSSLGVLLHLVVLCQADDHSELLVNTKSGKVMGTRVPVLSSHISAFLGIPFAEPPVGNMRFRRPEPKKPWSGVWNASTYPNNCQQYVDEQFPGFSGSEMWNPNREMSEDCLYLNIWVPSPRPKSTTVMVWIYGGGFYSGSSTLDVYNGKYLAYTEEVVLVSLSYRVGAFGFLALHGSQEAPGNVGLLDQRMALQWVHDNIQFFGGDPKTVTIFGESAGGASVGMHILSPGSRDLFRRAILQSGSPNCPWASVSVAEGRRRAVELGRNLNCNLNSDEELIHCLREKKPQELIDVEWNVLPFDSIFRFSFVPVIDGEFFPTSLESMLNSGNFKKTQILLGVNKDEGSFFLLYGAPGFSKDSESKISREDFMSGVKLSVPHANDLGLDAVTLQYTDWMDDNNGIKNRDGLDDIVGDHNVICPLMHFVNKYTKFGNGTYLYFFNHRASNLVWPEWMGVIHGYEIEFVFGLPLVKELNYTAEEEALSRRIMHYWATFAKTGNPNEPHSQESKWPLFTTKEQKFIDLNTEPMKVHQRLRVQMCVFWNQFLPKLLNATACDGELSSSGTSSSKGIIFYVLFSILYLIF

Row | Structure (SMILES) | IC50
1 | O=C(/C=C/c1ccc[n+](Cc2ccccc2)c1)c1cc2ccccc2o1 | 58 nM
2 | O=C(/C=C/c1ccc[n+](Cc2ccccc2Br)c1)c1cc2ccccc2o1 | 35 nM
3 | O=C(/C=C/c1ccc[n+](Cc2ccc(Br)cc2)c1)c1cc2ccccc2o1 | 357 nM
4 | O=C(/C=C/c1ccc[n+](Cc2ccc([N+](=O)[O-])cc2)c1)c1cc2ccccc2o1 | 29200 nM
5 | O=C(/C=C/c1ccc[n+](Cc2ccccc2)c1)c1cc2cc(Br)ccc2o1 | 5410 nM
6 | O=C(/C=C/c1ccc[n+](Cc2ccccc2Br)c1)c1cc2cc(Br)ccc2o1 | 2150 nM
7 | O=C(/C=C/c1ccc[n+](Cc2ccc(Br)cc2)c1)c1cc2cc(Br)ccc2o1 | 31000 nM
8 | O=C(/C=C/c1ccc[n+](Cc2cccc(Cl)c2Cl)c1)c1cc2cc(Br)ccc2o1 | 2850 nM
9 | O=C(/C=C/c1ccc[n+](Cc2ccc(Cl)c(Cl)c2)c1)c1cc2cc(Br)ccc2o1 | 786 nM
10 | COc1cccc2cc(C(=O)/C=C/c3ccc[n+](Cc4ccccc4)c3)oc12 | 3890 nM
11 | COc1cccc2cc(C(=O)/C=C/c3ccc[n+](Cc4ccccc4Br)c3)oc12 | 27 nM
12 | COc1cccc2cc(C(=O)/C=C/c3ccc[n+](Cc4ccc(Br)cc4)c3)oc12 | 10700 nM
13 | COc1cccc2cc(C(=O)/C=C/c3ccc[n+](Cc4ccc(Cl)cc4)c3)oc12 | 11200 nM
14 | COc1cccc2cc(C(=O)/C=C/c3ccc[n+](Cc4cccc(Cl)c4Cl)c3)oc12 | 985 nM
15 | O=C(/C=C/c1cc[n+](Cc2ccccc2)cc1)c1cc2ccccc2o1 | 64 nM
16 | O=C(/C=C/c1cc[n+](Cc2ccccc2Br)cc1)c1cc2ccccc2o1 | 41 nM
17 | O=C(/C=C/c1cc[n+](Cc2cccc(Cl)c2Cl)cc1)c1cc2ccccc2o1 | 3120 nM
18 | O=C(/C=C/c1cc[n+](Cc2ccccc2)cc1)c1cc2cc(Br)ccc2o1 | 5960 nM
